In paper PMC5215309 (European Journal of Nuclear Medicine and Molecular Imaging, 2016):

Biological target: T1, PDE10A (Macaca fascicularis, UniProt A0A2K5WSP5)
T1 construct: native enzyme in living brain (in vivo PET; striatum, globus pallidus, substantia nigra)
T1 sequence (A0A2K5WSP5 1-791): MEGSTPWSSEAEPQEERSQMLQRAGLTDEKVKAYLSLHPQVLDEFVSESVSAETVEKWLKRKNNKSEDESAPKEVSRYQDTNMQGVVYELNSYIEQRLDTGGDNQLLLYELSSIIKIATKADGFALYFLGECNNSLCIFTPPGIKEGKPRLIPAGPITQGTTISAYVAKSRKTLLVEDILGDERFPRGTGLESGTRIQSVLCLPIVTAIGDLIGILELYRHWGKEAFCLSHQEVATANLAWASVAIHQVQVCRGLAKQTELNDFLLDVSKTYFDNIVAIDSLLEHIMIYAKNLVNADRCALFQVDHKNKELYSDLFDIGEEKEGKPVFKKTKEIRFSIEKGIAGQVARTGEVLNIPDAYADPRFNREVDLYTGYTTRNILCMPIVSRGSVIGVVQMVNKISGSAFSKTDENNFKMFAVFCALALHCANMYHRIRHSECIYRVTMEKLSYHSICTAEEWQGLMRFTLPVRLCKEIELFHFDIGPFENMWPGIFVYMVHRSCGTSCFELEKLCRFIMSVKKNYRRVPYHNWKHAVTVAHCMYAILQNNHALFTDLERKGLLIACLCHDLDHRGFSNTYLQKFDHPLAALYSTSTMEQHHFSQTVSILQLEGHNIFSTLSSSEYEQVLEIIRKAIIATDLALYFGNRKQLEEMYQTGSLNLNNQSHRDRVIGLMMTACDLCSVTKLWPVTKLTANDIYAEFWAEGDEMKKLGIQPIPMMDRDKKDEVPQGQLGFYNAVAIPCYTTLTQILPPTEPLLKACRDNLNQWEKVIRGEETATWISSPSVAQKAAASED
Assay: in vivo PET competition with […]Lu AE92686, Lassen plot
Details: two monkeys; i.v. pretreatment, mean plasma concentrations 685 and 749 ng/mL

% PDE10A occupancy at […]: 93 and 95
SMILES: Cn1cc(-c2ccncc2)c(-c2ccc(OCc3ccc4ccccc4n3)cc2)n1 [MP-10]
